According to the NIST ThermoML archive (doi:10.1016/j.tca.2005.08.034):

Key:
[1] = refractive index (Na D-line) (dimensionless); conditions: 298.15 K; 101.33 kPa; Liquid; refractometer
[2] = 298.15 K; for surface tension liquid-gas: Drop volume; for speed of sound / mass density: 101.33 kPa, Liquid; for mass density: Vibrating tube method
[3] = refractive index (Na D-line) (dimensionless); φn = volume fraction of the nth substance listed; conditions: 298.15 K, 101.3 kPa, Liquid, refractometer
[4] = xn = mol fraction of the nth substance listed; conditions: 298.15 K; for surface tension liquid-gas: Drop volume; for mass density / speed of sound: 101.3 kPa, Liquid; for mass density: Vibrating tube method
[5] = excess molar enthalpy (molar enthalpy of mixing); xn = mol fraction of the nth substance listed; conditions: 298.15 K, 101.3 kPa, Liquid, Flow calorimetry

Fc1ccccc1 [fluorobenzene]
Conditions	mass density [kg/m3]	refractive index	speed of sound [m/s]	surface tension liquid-gas [mN/m]
[1]	–	1.4629	–	–
[2]	1018.79	–	1166	27.43

CC1CCCO1 (stereo unspecified) [2-methyltetrahydrofuran]
Conditions	mass density [kg/m3]	refractive index	speed of sound [m/s]	surface tension liquid-gas [mN/m]
[1]	–	1.40287	–	–
[2]	849.2	–	1202.8	24.68

Clc1ccccc1 [chlorobenzene]
Conditions	mass density [kg/m3]	refractive index	speed of sound [m/s]	surface tension liquid-gas [mN/m]
[1]	–	1.52176	–	–
[2]	1100.94	–	1267.9	33

CC1CCCO1 (stereo unspecified) [2-methyltetrahydrofuran] + c1ccccc1
Conditions	excess molar enthalpy [kcal/mol]	mass density [kg/m3]	refractive index	speed of sound [m/s]	surface tension liquid-gas [mN/m]
[3], φ1 = 0.0603	–	–	1.49204	–	–
[3], φ1 = 0.1086	–	–	1.48747	–	–
[3], φ1 = 0.2167	–	–	1.47724	–	–
[3], φ1 = 0.331	–	–	1.46642	–	–
[3], φ1 = 0.4263	–	–	1.4574	–	–
[3], φ1 = 0.5289	–	–	1.44769	–	–
[3], φ1 = 0.6273	–	–	1.43835	–	–
[3], φ1 = 0.7294	–	–	1.42866	–	–
[3], φ1 = 0.8223	–	–	1.41981	–	–
[3], φ1 = 0.9137	–	–	1.41109	–	–
[3], φ1 = 0.9587	–	–	1.40681	–	–
[4], x1 = 0.0456	–	872.27	–	1295.7	–
[4], x1 = 0.0536	–	–	–	–	28.33
[4], x1 = 0.0971	–	–	–	–	28.15
[4], x1 = 0.0981	–	871	–	1290.9	–
[4], x1 = 0.1962	–	–	–	–	27.74
[4], x1 = 0.1987	–	868.57	–	1281.6	–
[4], x1 = 0.2996	–	866.21	–	1271.8	–
[4], x1 = 0.3039	–	–	–	–	27.3
[4], x1 = 0.395	–	863.99	–	1263	–
[4], x1 = 0.396	–	–	–	–	26.92
[4], x1 = 0.4976	–	–	–	–	26.51
[4], x1 = 0.4979	–	861.47	–	1253.1	–
[4], x1 = 0.5949	–	859.05	–	1243.6	–
[4], x1 = 0.5976	–	–	–	–	26.12
[4], x1 = 0.6798	–	856.87	–	1235.1	–
[4], x1 = 0.704	–	–	–	–	25.71
[4], x1 = 0.7992	–	853.68	–	1222.7	–
[4], x1 = 0.8033	–	–	–	–	25.36
[4], x1 = 0.896	–	851.23	–	1212.7	–
[4], x1 = 0.9034	–	–	–	–	25.01
[4], x1 = 0.9486	–	850.1	–	1207.5	–
[4], x1 = 0.9535	–	–	–	–	24.84
[5], x1 = 0.054	-0.00526	–	–	–	–
[5], x1 = 0.097	-0.011	–	–	–	–
[5], x1 = 0.188	-0.0232	–	–	–	–
[5], x1 = 0.279	-0.033	–	–	–	–
[5], x1 = 0.377	-0.0409	–	–	–	–
[5], x1 = 0.494	-0.0449	–	–	–	–
[5], x1 = 0.575	-0.0464	–	–	–	–
[5], x1 = 0.679	-0.0423	–	–	–	–
[5], x1 = 0.783	-0.0332	–	–	–	–
[5], x1 = 0.89	-0.0196	–	–	–	–
[5], x1 = 0.944	-0.0108	–	–	–	–

CC1CCCO1 (stereo unspecified) [2-methyltetrahydrofuran] + Clc1ccccc1
Conditions	excess molar enthalpy [kcal/mol]	mass density [kg/m3]	refractive index	speed of sound [m/s]	surface tension liquid-gas [mN/m]
[3], φ1 = 0.0479	–	–	1.5165	–	–
[3], φ1 = 0.0961	–	–	1.5112	–	–
[3], φ1 = 0.1979	–	–	1.49985	–	–
[3], φ1 = 0.2981	–	–	1.48853	–	–
[3], φ1 = 0.3966	–	–	1.47724	–	–
[3], φ1 = 0.5008	–	–	1.46501	–	–
[3], φ1 = 0.5987	–	–	1.45323	–	–
[3], φ1 = 0.7006	–	–	1.44079	–	–
[3], φ1 = 0.8014	–	–	1.4283	–	–
[3], φ1 = 0.9043	–	–	1.41518	–	–
[3], φ1 = 0.9492	–	–	1.40941	–	–
[4], x1 = 0.0378	–	1092.14	–	1266.6	–
[4], x1 = 0.0483	–	–	–	–	32.6
[4], x1 = 0.0969	–	–	–	–	32.19
[4], x1 = 0.0995	–	1077.75	–	1264.3	–
[4], x1 = 0.1875	–	1056.86	–	1261.1	–
[4], x1 = 0.1993	–	–	–	–	31.31
[4], x1 = 0.2987	–	1030.2	–	1256.5	–
[4], x1 = 0.2999	–	–	–	–	30.45
[4], x1 = 0.3922	–	1007.36	–	1251.9	–
[4], x1 = 0.3988	–	–	–	–	29.61
[4], x1 = 0.4947	–	981.73	–	1246.3	–
[4], x1 = 0.503	–	–	–	–	28.74
[4], x1 = 0.5973	–	955.71	–	1239.9	–
[4], x1 = 0.6008	–	–	–	–	27.92
[4], x1 = 0.6435	–	943.88	–	1236.6	–
[4], x1 = 0.7024	–	–	–	–	27.09
[4], x1 = 0.8003	–	902.98	–	1223.5	–
[4], x1 = 0.8028	–	–	–	–	26.27
[4], x1 = 0.9051	–	–	–	–	25.44
[4], x1 = 0.9074	–	874.39	–	1212.9	–
[4], x1 = 0.9393	–	865.76	–	1209.6	–
[4], x1 = 0.9496	–	–	–	–	25.08
[5], x1 = 0.058	-0.0203	–	–	–	–
[5], x1 = 0.105	-0.0402	–	–	–	–
[5], x1 = 0.198	-0.0793	–	–	–	–
[5], x1 = 0.294	-0.114	–	–	–	–
[5], x1 = 0.391	-0.137	–	–	–	–
[5], x1 = 0.488	-0.15	–	–	–	–
[5], x1 = 0.585	-0.149	–	–	–	–
[5], x1 = 0.683	-0.137	–	–	–	–
[5], x1 = 0.784	-0.107	–	–	–	–
[5], x1 = 0.883	-0.0626	–	–	–	–
[5], x1 = 0.932	-0.0394	–	–	–	–

Fc1ccccc1 [fluorobenzene] + CC1CCCO1
Conditions	excess molar enthalpy [kcal/mol]	mass density [kg/m3]	refractive index	speed of sound [m/s]	surface tension liquid-gas [mN/m]
[3], φ2 = 0.039	–	–	1.4608	–	–
[3], φ2 = 0.1151	–	–	1.45666	–	–
[3], φ2 = 0.2069	–	–	1.4516	–	–
[3], φ2 = 0.3103	–	–	1.44577	–	–
[3], φ2 = 0.4171	–	–	1.4396	–	–
[3], φ2 = 0.5137	–	–	1.43392	–	–
[3], φ2 = 0.6218	–	–	1.42736	–	–
[3], φ2 = 0.6938	–	–	1.42282	–	–
[3], φ2 = 0.7916	–	–	1.41661	–	–
[3], φ2 = 0.9154	–	–	1.40849	–	–
[3], φ2 = 0.9727	–	–	1.40473	–	–
[4], x2 = 0.0364	–	–	–	–	27.39
[4], x2 = 0.0456	–	1011.05	–	1168.5	–
[4], x2 = 0.099	–	1001.97	–	1171.6	–
[4], x2 = 0.108	–	–	–	–	27.27
[4], x2 = 0.1923	–	986.13	–	1176.9	–
[4], x2 = 0.1998	–	–	–	–	27.07
[4], x2 = 0.2882	–	969.82	–	1182.1	–
[4], x2 = 0.2952	–	–	–	–	26.83
[4], x2 = 0.3925	–	952.32	–	1187.1	–
[4], x2 = 0.3998	–	–	–	–	26.52
[4], x2 = 0.4884	–	936.02	–	1191.1	–
[4], x2 = 0.4958	–	–	–	–	26.21
[4], x2 = 0.5925	–	918.32	–	1194.8	–
[4], x2 = 0.6048	–	–	–	–	25.86
[4], x2 = 0.6784	–	–	–	–	25.62
[4], x2 = 0.6907	–	901.51	–	1197.6	–
[4], x2 = 0.7796	–	–	–	–	25.3
[4], x2 = 0.7942	–	883.72	–	1199.4	–
[4], x2 = 0.8938	–	866.65	–	1201	–
[4], x2 = 0.9097	–	–	–	–	24.92
[4], x2 = 0.9481	–	857.59	–	1201.9	–
[4], x2 = 0.9707	–	–	–	–	24.76
[5], x2 = 0.056	-0.0191	–	–	–	–
[5], x2 = 0.101	-0.0373	–	–	–	–
[5], x2 = 0.195	-0.0746	–	–	–	–
[5], x2 = 0.288	-0.103	–	–	–	–
[5], x2 = 0.388	-0.125	–	–	–	–
[5], x2 = 0.474	-0.138	–	–	–	–
[5], x2 = 0.583	-0.136	–	–	–	–
[5], x2 = 0.685	-0.124	–	–	–	–
[5], x2 = 0.786	-0.0966	–	–	–	–
[5], x2 = 0.889	-0.0574	–	–	–	–
[5], x2 = 0.94	-0.0323	–	–	–	–

c1ccccc1 [benzene]
Conditions	mass density [kg/m3]	refractive index	speed of sound [m/s]	surface tension liquid-gas [mN/m]
[1]	–	1.49774	–	–
[2]	873.39	–	1299.2	28.57
